Key:
Type in all cases: in vivo
[1] = system: ducksalad (Heteranthera limosa); assay: Test B flooded paddy test, plant response rating 0-100; settings: Flood, 250 g ai/ha; scale 0 to 100 (0 no effect, 100 complete control); 13 to 15 days
Source text: (§1) At time of treatment, test pots were flooded to 3 cm above the soil surface, treated by application of test compounds directly to the paddy water, and then maintained at that water depth for the duration of the test. Treated plants and controls were maintained in a greenhouse for 13 to 15 days, after which time all species were compared to controls and visually evaluated. […] A dash (-) response means no test result.

[2] = system: barnyardgrass (Echinochloa crus-galli); assay: as above; settings: Flood, 250 g ai/ha; scale 0 to 100 (0 no effect, 100 complete control); 13 to 15 days
Source text: as §1

rice (Oryza sativa) = assay: as above; settings: Flood, 250 g ai/ha; scale 0 to 100 (0 no effect, 100 complete control); 13 to 15 days
Source text: as §1

[3] = system: sedge, umbrella (small-flower umbrella sedge, Cyperus difformis); assay: as above; settings: Flood, 250 g ai/ha; scale 0 to 100 (0 no effect, 100 complete control); 13 to 15 days
Source text: as §1

[4] = system: morningglory (Ipomoea spp.); assay: Test A pre-/postemergence greenhouse herbicide test, visual injury rating 0-100
How it was run: (§2)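 Test chemicals in a non-phytotoxic solvent/surfactant blend were sprayed onto loam–sand soil after planting (pre) and onto 2–10 cm seedlings at one to two leaves (post). Greenhouse hold approx. 10 days; injury then judged visually.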

[5] = system: barnyardgrass (Echinochloa crus-galli); assay: as above
How it was run: as §2

[6] = system: wheat (Triticum aestivum); assay: as above
How it was run: as §2

[7] = system: pigweed (Amaranthus retroflexus); assay: as above
How it was run: as §2

[8] = system: velvetleaf (Abutilon theophrasti); assay: as above
How it was run: as §2

corn (Zea mays) = assay: as above
How it was run: as §2

[9] = system: large (Lg) crabgrass (Digitaria sanguinalis); assay: as above
How it was run: as §2

[10] = system: giant foxtail (Setaria faberii); assay: as above
How it was run: as §2

CCn1cc(C(=O)c2ccccc2)c(-c2cc(F)cc(Br)c2)n1 [Compound 10]
Plant response rating, Ducksalad [1]: 0
Plant response rating, Barnyardgrass [2]: 0
Plant response rating, Rice (rice (Oryza sativa)): 0
Plant response rating, Sedge, Umbrella [3]: 0
Plant response rating (0 to 100 scale), Morningglory ([4]; Postemergence, 1000 g ai/ha): 0
Plant response rating (0 to 100 scale), Morningglory ([4]; Preemergence, 1000 g ai/ha): 0
Plant response rating (0 to 100 scale), Barnyardgrass ([5]; Postemergence, 1000 g ai/ha): 0
Plant response rating (0 to 100 scale), Barnyardgrass ([5]; Preemergence, 1000 g ai/ha): 0
Plant response rating (0 to 100 scale), Wheat ([6]; Postemergence, 1000 g ai/ha): 0
Plant response rating (0 to 100 scale), Wheat ([6]; Preemergence, 1000 g ai/ha): 0
Plant response rating (0 to 100 scale), Pigweed ([7]; Postemergence, 1000 g ai/ha): 90
Plant response rating (0 to 100 scale), Pigweed ([7]; Preemergence, 1000 g ai/ha): 100
Plant response rating (0 to 100 scale), Velvetleaf ([8]; Postemergence, 1000 g ai/ha): 90
Plant response rating (0 to 100 scale), Velvetleaf ([8]; Preemergence, 1000 g ai/ha): 90
Plant response rating (0 to 100 scale), Corn (corn (Zea mays); Postemergence, 1000 g ai/ha): 0
Plant response rating (0 to 100 scale), Corn (corn (Zea mays); Preemergence, 1000 g ai/ha): 0
Plant response rating (0 to 100 scale), Crabgrass, Large ([9]; Postemergence, 1000 g ai/ha): 0
Plant response rating (0 to 100 scale), Crabgrass, Large ([9]; Preemergence, 1000 g ai/ha): 0
Plant response rating (0 to 100 scale), Foxtail, Giant ([10]; Postemergence, 1000 g ai/ha): 0
Plant response rating (0 to 100 scale), Foxtail, Giant ([10]; Preemergence, 1000 g ai/ha): 0

O=C(c1cncc(F)c1)c1c[nH]nc1-c1cc(F)cc(Cl)c1 [Compound 22]
Plant response rating, Ducksalad [1]: 0
Plant response rating, Barnyardgrass [2]: 0
Plant response rating, Rice (rice (Oryza sativa)): 0
Plant response rating, Sedge, Umbrella [3]: 0
Plant response rating (0 to 100 scale), Morningglory ([4]; Postemergence, 125 g ai/ha): 0
Plant response rating (0 to 100 scale), Morningglory ([4]; Postemergence, 500 g ai/ha): 0
Morningglory plant response rating (0 = no effect, 100 = complete control) ([4]; Preemergence, 125 g ai/ha): 0
Plant response rating (0 to 100 scale), Morningglory ([4]; Preemergence, 500 g ai/ha): 0
Plant response rating (0 to 100 scale), Barnyardgrass ([5]; Postemergence, 125 g ai/ha): 0
Plant response rating (0 to 100 scale), Barnyardgrass ([5]; Postemergence, 500 g ai/ha): 0
Barnyardgrass plant response rating (0 = no effect, 100 = complete control) ([5]; Preemergence, 125 g ai/ha): 0
Plant response rating (0 to 100 scale), Barnyardgrass ([5]; Preemergence, 500 g ai/ha): 0
Plant response rating (0 to 100 scale), Wheat ([6]; Postemergence, 125 g ai/ha): 0
Plant response rating (0 to 100 scale), Wheat ([6]; Postemergence, 500 g ai/ha): 0
Wheat plant response rating (0 = no effect, 100 = complete control) ([6]; Preemergence, 125 g ai/ha): 0
Plant response rating (0 to 100 scale), Wheat ([6]; Preemergence, 500 g ai/ha): 0
Plant response rating (0 to 100 scale), Pigweed ([7]; Postemergence, 125 g ai/ha): 70
Plant response rating (0 to 100 scale), Pigweed ([7]; Postemergence, 500 g ai/ha): 100
Pigweed plant response rating (0 = no effect, 100 = complete control) ([7]; Preemergence, 125 g ai/ha): 60
Plant response rating (0 to 100 scale), Pigweed ([7]; Preemergence, 500 g ai/ha): 100
Plant response rating (0 to 100 scale), Velvetleaf ([8]; Postemergence, 125 g ai/ha): 60
Plant response rating (0 to 100 scale), Velvetleaf ([8]; Postemergence, 500 g ai/ha): 80
Velvetleaf plant response rating (0 = no effect, 100 = complete control) ([8]; Preemergence, 125 g ai/ha): 30
Plant response rating (0 to 100 scale), Velvetleaf ([8]; Preemergence, 500 g ai/ha): 60
Plant response rating (0 to 100 scale), Corn (corn (Zea mays); Postemergence, 125 g ai/ha): 0
Plant response rating (0 to 100 scale), Corn (corn (Zea mays); Postemergence, 500 g ai/ha): 0
Corn plant response rating (0 = no effect, 100 = complete control) (corn (Zea mays); Preemergence, 125 g ai/ha): 0
Plant response rating (0 to 100 scale), Corn (corn (Zea mays); Preemergence, 500 g ai/ha): 0
Plant response rating (0 to 100 scale), Crabgrass, Large ([9]; Postemergence, 125 g ai/ha): 0
Plant response rating (0 to 100 scale), Crabgrass, Large ([9]; Postemergence, 500 g ai/ha): 0
Crabgrass, Large plant response rating (0 = no effect, 100 = complete control) ([9]; Preemergence, 125 g ai/ha): 0
Plant response rating (0 to 100 scale), Crabgrass, Large ([9]; Preemergence, 500 g ai/ha): 0
Plant response rating (0 to 100 scale), Foxtail, Giant ([10]; Postemergence, 125 g ai/ha): 0
Plant response rating (0 to 100 scale), Foxtail, Giant ([10]; Postemergence, 500 g ai/ha): 0
Foxtail, Giant plant response rating (0 = no effect, 100 = complete control) ([10]; Preemergence, 125 g ai/ha): 0
Plant response rating (0 to 100 scale), Foxtail, Giant ([10]; Preemergence, 500 g ai/ha): 0

Reference: patent publication US10167262B2, “Herbicidal substituted 3-arylpyrazoles” (FMC CORPORATION, priority 2014, dated 2019)
